Columns and labels:
SARS-CoV-2 3CLpro = SARS-CoV-2 3CLpro (Severe acute respiratory syndrome coronavirus 2, UniProt P0DTD1); test: biochemical
HCoV-229E 3CLpro = HCoV-229E 3CLpro (Human coronavirus 229E, UniProt P0C6X1); test: HCoV-229E 3CLpro inhibition assay (FRET); type: biochemical
MERS-CoV 3CLpro = MERS-CoV 3CLpro (Middle East respiratory syndrome-related coronavirus, UniProt K9N7C7); test: biochemical
SARS-CoV 3CLpro = SARS-CoV 3CLpro (Severe acute respiratory syndrome coronavirus, UniProt P0C6X7); test: biochemical

Chain of HCoV-229E 3CLpro (P0C6X1 2966-3267): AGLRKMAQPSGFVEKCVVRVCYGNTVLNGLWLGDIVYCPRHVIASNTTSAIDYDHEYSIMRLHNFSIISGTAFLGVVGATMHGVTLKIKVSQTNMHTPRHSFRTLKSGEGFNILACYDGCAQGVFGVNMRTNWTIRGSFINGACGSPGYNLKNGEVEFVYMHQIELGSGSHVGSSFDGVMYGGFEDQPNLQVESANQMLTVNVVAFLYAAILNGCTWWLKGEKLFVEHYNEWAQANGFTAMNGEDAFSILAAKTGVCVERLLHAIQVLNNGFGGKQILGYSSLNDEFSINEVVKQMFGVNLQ
Chain of MERS-CoV 3CLpro (K9N7C7 3248-3553): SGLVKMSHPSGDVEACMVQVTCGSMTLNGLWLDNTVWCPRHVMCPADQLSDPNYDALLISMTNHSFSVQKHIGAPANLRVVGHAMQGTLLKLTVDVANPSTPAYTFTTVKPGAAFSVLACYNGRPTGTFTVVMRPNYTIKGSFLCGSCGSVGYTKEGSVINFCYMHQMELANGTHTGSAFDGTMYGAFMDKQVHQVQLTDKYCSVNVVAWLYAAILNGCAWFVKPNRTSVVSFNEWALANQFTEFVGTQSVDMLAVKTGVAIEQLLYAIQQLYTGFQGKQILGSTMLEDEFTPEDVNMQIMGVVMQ

Structure (SMILES) | IC50 (SARS-CoV-2 3CLpro) | IC50 (HCoV-229E 3CLpro) | IC50 (MERS-CoV 3CLpro) | IC50 (SARS-CoV 3CLpro)
CC(C)(C)C(=O)N[C@H](C(=O)N1C[C@H]2[C@@H]([C@H]1C(=O)NN(C[C@@H]1CCNC1=O)C(=O)[C@H](F)Cl)C2(C)C)C(C)(C)C [Example 11, N-[(1S)-1-[(1R,2S,5S)-2-[[[(2R)-2-chloro-2-fluoro-acetyl]-[[(3S)-2-oxopyrrolidin-3-yl]methyl]amino]carbamoyl]-6,6-dimethyl-3-azabicyclo[3.1.0]hexane-3-carbonyl]-2,2-dimethyl-propyl]-2,2-dimethyl-propanamide] | 218 nM | 56 nM | 260 nM | 34 nM
CC(C)(C)[C@H](NC(=O)C1CC1)C(=O)N1C[C@H]2[C@@H]([C@H]1C(=O)NN(C[C@@H]1CCNC1=O)C(=O)[C@H](F)Cl)C2(C)C [Example 12, N-[(1S)-1-[(1R,2S,5S)-2-[[[(2R)-2-chloro-2-fluoro-acetyl]-[[(3S)-2-oxopyrrolidin-3-yl]methyl]amino]carbamoyl]-6,6-dimethyl-3-azabicyclo[3.1.0]hexane-3-carbonyl]-2,2-dimethyl-propyl]cyclopropanecarboxamide] | 15 nM | 26 nM | 106 nM | 17 nM
CC(C)C(=O)N[C@H](C(=O)N1C[C@H]2[C@@H]([C@H]1C(=O)NN(C[C@@H]1CCNC1=O)C(=O)[C@H](F)Cl)C2(C)C)C(C)(C)C [Example 13, N-[(1S)-1-[(1R,2S,5S)-2-[[[(2R)-2-chloro-2-fluoro-acetyl]-[[(3S)-2-oxopyrrolidin-3-yl]methyl]amino]carbamoyl]-6,6-dimethyl-3-azabicyclo[3.1.0]hexane-3-carbonyl]-2,2-dimethyl-propyl]-2-methyl-propanamide] | 9 nM | 24 nM | 94 nM | 14 nM
CC(C)(C)[C@H](NC(=O)C(F)F)C(=O)N1C[C@H]2[C@@H]([C@H]1C(=O)NN(C[C@@H]1CCNC1=O)C(=O)[C@H](F)Cl)C2(C)C [Example 14, N-[(1S)-1-[(1R,2S,5S)-2-[[[(2R)-2-chloro-2-fluoro-acetyl]-[[(3S)-2-oxopyrrolidin-3-yl]methyl]amino]carbamoyl]-6,6-dimethyl-3-azabicyclo[3.1.0]hexane-3-carbonyl]-2,2-dimethyl-propyl]-2,2-difluoro-acetamide] | 7 nM | 36 nM | 121 nM | 18 nM
CC(C)(C)[C@H](NC(=O)C12CC(C1)C2)C(=O)N1C[C@H]2[C@@H]([C@H]1C(=O)NN(C[C@@H]1CCNC1=O)C(=O)[C@H](F)Cl)C2(C)C [Example 15, N-[(1S)-1-[(1R,2S,5S)-2-[[[(2R)-2-chloro-2-fluoro-acetyl]-[[(3S)-2-oxopyrrolidin-3-yl]methyl]amino]carbamoyl]-6,6-dimethyl-3-azabicyclo[3.1.0]hexane-3-carbonyl]-2,2-dimethyl-propyl]bicyclo[1.1.1]pentane-1-carboxamide] | 8 nM | 55 nM | 204 nM | 26 nM
CC(C)(C)[C@H](NC(=O)c1cc(C(F)(F)F)on1)C(=O)N1C[C@H]2[C@@H]([C@H]1C(=O)NN(C[C@@H]1CCNC1=O)C(=O)[C@H](F)Cl)C2(C)C [Example 16, N-[(1S)-1-[(1R,2S,5S)-2-[[[(2R)-2-chloro-2-fluoro-acetyl]-[[(3S)-2-oxopyrrolidin-3-yl]methyl]amino]carbamoyl]-6,6-dimethyl-3-azabicyclo[3.1.0]hexane-3-carbonyl]-2,2-dimethyl-propyl]-5-(trifluoromethyl)isoxazole-3-carboxamide] | 20 nM | 159 nM | 430 nM | 357 nM
CC(C)(C)[C@H](NC(=O)C(F)(F)F)C(=O)N1C[C@H]2[C@@H]([C@H]1C(=O)NN(C[C@@H]1CCNC1=O)C(=O)[C@@H](F)Cl)C2(C)C [Example 19, N-[(1S)-1-[(1R,2S,5S)-2-[[[(2S)-2-chloro-2-fluoro-acetyl]-[[(3S)-2-oxopyrrolidin-3-yl]methyl]amino]carbamoyl]-6,6-dimethyl-3-azabicyclo[3.1.0]hexane-3-carbonyl]-2,2-dimethyl-propyl]-2,2,2-trifluoro-acetamide] | 13 nM | 27 nM | 92 nM | 15 nM
CC1(C)[C@@H]2[C@@H](C(=O)NN(C[C@@H]3CCNC3=O)C(=O)[C@H](F)Cl)N(C(=O)[C@H](Cc3ccccc3)NC(=O)C(F)(F)F)C[C@@H]21 [Example 20, N-[(1S)-1-benzyl-2-[(1R,2S,5S)-2-[[[(2R)-2-chloro-2-fluoro-acetyl]-[[(3S)-2-oxopyrrolidin-3-yl]methyl]amino]carbamoyl]-6,6-dimethyl-3-azabicyclo[3.1.0]hexan-3-yl]-2-oxo-ethyl]-2,2,2-trifluoro-acetamide] | 14 nM | 47 nM | 106 nM | 16 nM
CC1(C)[C@@H]2[C@@H](C(=O)NN(C[C@@H]3CCNC3=O)C(=O)[C@H](F)Cl)N(C(=O)[C@@H](NC(=O)C(F)(F)F)c3ccccc3)C[C@@H]21 [Example 21, N-[(1S)-2-[(1R,2S,5S)-2-[[[(2R)-2-chloro-2-fluoro-acetyl]-[[(3S)-2-oxopyrrolidin-3-yl]methyl]amino]carbamoyl]-6,6-dimethyl-3-azabicyclo[3.1.0]hexan-3-yl]-2-oxo-1-phenyl-ethyl]-2,2,2-trifluoro-acetamide] | 25 nM | 34 nM | 109 nM | 17 nM
CC(C)(C)[C@H](NC(=O)C(F)(F)C(F)(F)F)C(=O)N1C[C@H]2[C@@H]([C@H]1C(=O)NN(C[C@@H]1CCNC1=O)C(=O)[C@H](F)Cl)C2(C)C [Example 22, N-[(1S)-1-[(1R,2S,5S)-2-[[[(2R)-2-chloro-2-fluoro-acetyl]-[[(3S)-2-oxopyrrolidin-3-yl]methyl]amino]carbamoyl]-6,6-dimethyl-3-azabicyclo[3.1.0]hexane-3-carbonyl]-2,2-dimethyl-propyl]-2,2,3,3,3-pentafluoro-propanamide] | 8 nM | 76 nM | 183 nM | 31 nM
CC(C)(C)[C@H](NC(=O)C(F)(F)F)C(=O)N1C[C@H](C(F)(F)F)C[C@H]1C(=O)NN(C[C@@H]1CCNC1=O)C(=O)[C@H](F)Cl [Example 23, N-[(1S)-1-[(2S,4R)-2-[[[(2R)-2-chloro-2-fluoro-acetyl]-[[(3S)-2-oxopyrrolidin-3-yl]methyl]amino]carbamoyl]-4-(trifluoromethyl)pyrrolidine-1-carbonyl]-2,2-dimethyl-propyl]-2,2,2-trifluoro-acetamide] | 9 nM | 21 nM | 65 nM | 11 nM
CC1([C@H](NC(=O)C(F)(F)F)C(=O)N2CC3(CC3)C[C@H]2C(=O)NN(C[C@@H]2CCNC2=O)C(=O)[C@H](F)Cl)CC1 [Example 24, N-[(1S)-2-[(6S)-6-[[[(2R)-2-chloro-2-fluoro-acetyl]-[[(3S)-2-oxopyrrolidin-3-yl]methyl]amino]carbamoyl]-5-azaspiro[2.4]heptan-5-yl]-1-(1-methylcyclopropyl)-2-oxo-ethyl]-2,2,2-trifluoro-acetamide] | 18 nM | 31 nM | 114 nM | 13 nM
CC(C)C(=O)N[C@H](C(=O)N1CC2(CC2)C[C@H]1C(=O)NN(C[C@@H]1CCNC1=O)C(=O)[C@H](F)Cl)C(C)(C)C [Example 25, N-[(1S)-1-[(6S)-6-[[[(2R)-2-chloro-2-fluoro-acetyl]-[[(3S)-2-oxopyrrolidin-3-yl]methyl]amino]carbamoyl]-5-azaspiro[2.4]heptane-5-carbonyl]-2,2-dimethyl-propyl]-2-methyl-propanamide] | 15 nM | 127 nM | 408 nM | 27 nM
CC1(C)C[C@@H](C(=O)NN(C[C@@H]2CCNC2=O)C(=O)[C@H](F)Cl)N(C(=O)[C@@H](NC(=O)C2CC2)C(C)(C)C)C1 [Example 26, N-[(1S)-1-[(2S)-2-[[[(2R)-2-chloro-2-fluoro-acetyl]-[[(3S)-2-oxopyrrolidin-3-yl]methyl]amino]carbamoyl]-4,4-dimethyl-pyrrolidine-1-carbonyl]-2,2-dimethyl-propyl]cyclopropanecarboxamide] | 12 nM | 28 nM | 98 nM | 21 nM
C[C@H]1C[C@@H](C(=O)NN(C[C@@H]2CCNC2=O)C(=O)[C@H](F)Cl)N(C(=O)[C@@H](NC(=O)C(F)(F)F)C(C)(C)C)C1 [Example 27, N-[(1S)-1-[(2S,4S)-2-[[[(2R)-2-chloro-2-fluoro-acetyl]-[[(3S)-2-oxopyrrolidin-3-yl]methyl]amino]carbamoyl]-4-methyl-pyrrolidine-1-carbonyl]-2,2-dimethyl-propyl]-2,2,2-trifluoro-acetamide] | 29 nM | 29 nM | 136 nM | 20 nM
CC(C)(C)[C@H](NC(=O)C(F)F)C(=O)N1C[C@@H]2CCC[C@@H]2[C@H]1C(=O)NN(C[C@@H]1CCNC1=O)C(=O)[C@H](F)Cl [Example 28, N-[(1S)-1-[(3S,3aS,6aR)-3-[[[(2R)-2-chloro-2-fluoro-acetyl]-[[(3S)-2-oxopyrrolidin-3-yl]methyl]amino]carbamoyl]-3,3a,4,5,6,6a-hexahydro-1H-cyclopenta[c]pyrrole-2-carbonyl]-2,2-dimethyl-propyl]-2,2-difluoro-acetamide] | 8 nM | 396 nM | 1020 nM | 38 nM
CC(=O)N[C@H](C(=O)N1C[C@@H]2CCC[C@@H]2[C@H]1C(=O)NN(C[C@@H]1CCNC1=O)C(=O)[C@H](F)Cl)C(C)(C)C [Example 29, N-[(1S)-1-[(3S,3aS,6aR)-3-[[[(2R)-2-chloro-2-fluoro-acetyl]-[[(3S)-2-oxopyrrolidin-3-yl]methyl]amino]carbamoyl]-3,3a,4,5,6,6a-hexahydro-1H-cyclopenta[c]pyrrole-2-carbonyl]-2,2-dimethyl-propyl]acetamide] | 10 nM | 28 nM | 68 nM | 11 nM
